pIC50: −log10 of the molar value. Counter-ions that a name gives are not always drawn.
Columns and labels:
JAK2 tyrosine kinase = molecular target: T1, JAK2 tyrosine kinase (Homo sapiens, UniProt O60674); assay: Test 1: inhibitory activity to JAK2 tyrosine kinase (ELISA); assay type: biochemical; conditions: 25 μM ATP in substrate solution, 30° C. for 1 hour, n=2
T1 construct: purchased Carnabioscience Co
Procedure: Test 1: Test for inhibitory activity to JAK2 and JAK3 tyrosine kinase 1. Preparation of Test Material
The test material was dissolved in dimethylsulfoxide (DMSO) to be 10 mM, and further diluted with DMSO to be 100-fold concentrations for measurement (1000, 300, 100, 30, 10, 3, 1, 0.3, 0.1, 0.03, 0.01 μM). In addition, solutions diluted with an assay buffer up to 20 times were used as solutions of the test material. As a negative control, a solution of DMSO diluted 20 times with an assay buffer was used. As the assay buffer, 15 mM Tris-Cl (pH 7.5), 0.01 v/v % Tween-20, and 1 mM dithiothreitol were used.
2. Measurement of the Activities of JAK2 and JAK3 Tyrosine Kinases
The activity was determined by ELISA. The solution of the test material (10 μl each; n=2) was placed in a streptavidine-coated 96 well plate (DELFIA Strip Plate 8×12 wells; Perkin Elmer), to which 20 μl each of substrate solution (625 nM biotin-labeled peptide substrate, 25 μM ATP, 25 mM MgCl2, 15 mM Tris-Cl (pH 7.5), 0.01 v/v % Tween-20, and 1 mM dithiothreitol), was added and stirred. Finally, 20 μl each of JAK2 tyrosine kinase (Carnabioscience Co.) (diluted to 0.75 nM with assay buffer) or JAK3 tyrosine kinase (Carnabioscience Co.) (diluted to 0.75 nM with assay buffer) was added, stirred and allowed to stand at 30° C. for 1 hour. The plate was washed 4 times with a washing buffer (50 mM Tris-Cl, pH 7.5, 150 mM NaCl, 0.02 v/v % Tween-20), and then a blocking buffer (0.1% Bovine Serum Albumin, 50 mM Tris-Cl, pH 7.5, 150 mM NaCl, 0.02 v/v % Tween-20)(150 μl each) was added for blocking at 30° C. for 30 minutes. Blocking buffer was removed, and there was added 100 μl each of horse radish peroxidase-labeled anti-phosphorylated tyrosin kinase antibody (BD Bioscience Co.) (diluted 10,000 times with blocking buffer). The plate was incubated at 30° C. for 30 minutes and then washed 4 times with a washing buffer, and 100 μl each of 3,3′,5,5′-tetramethylbenzidine (Sigma-Aldrich Co.) was added to develop color for 10 minutes. 0.1 M sulfuric acid (100 μl each) was added to stop the reaction. The absorbance was measured by means of a micro-plate reader (BIO-RAD; Model 3550) at 450 nm.
3. Analysis of the Results of the Measurement
The measured absorbance was subjected to a non-linear regression analysis by means of a SAS system (SAS Institute Inc.), and the concentration (IC50) of the test material which inhibited 50% of the activity of each tyrosine kinase was estimated.

JAK3 tyrosine kinase = molecular target: T2, JAK3 tyrosine kinase (Homo sapiens, UniProt P52333); assay: Test 1: inhibitory activity to JAK3 tyrosine kinase (ELISA); assay type: biochemical; conditions: 25 μM ATP in substrate solution, 30° C. for 1 hour, n=2
T2 construct: purchased Carnabioscience Co
T2 sequence (P52333 1-1124): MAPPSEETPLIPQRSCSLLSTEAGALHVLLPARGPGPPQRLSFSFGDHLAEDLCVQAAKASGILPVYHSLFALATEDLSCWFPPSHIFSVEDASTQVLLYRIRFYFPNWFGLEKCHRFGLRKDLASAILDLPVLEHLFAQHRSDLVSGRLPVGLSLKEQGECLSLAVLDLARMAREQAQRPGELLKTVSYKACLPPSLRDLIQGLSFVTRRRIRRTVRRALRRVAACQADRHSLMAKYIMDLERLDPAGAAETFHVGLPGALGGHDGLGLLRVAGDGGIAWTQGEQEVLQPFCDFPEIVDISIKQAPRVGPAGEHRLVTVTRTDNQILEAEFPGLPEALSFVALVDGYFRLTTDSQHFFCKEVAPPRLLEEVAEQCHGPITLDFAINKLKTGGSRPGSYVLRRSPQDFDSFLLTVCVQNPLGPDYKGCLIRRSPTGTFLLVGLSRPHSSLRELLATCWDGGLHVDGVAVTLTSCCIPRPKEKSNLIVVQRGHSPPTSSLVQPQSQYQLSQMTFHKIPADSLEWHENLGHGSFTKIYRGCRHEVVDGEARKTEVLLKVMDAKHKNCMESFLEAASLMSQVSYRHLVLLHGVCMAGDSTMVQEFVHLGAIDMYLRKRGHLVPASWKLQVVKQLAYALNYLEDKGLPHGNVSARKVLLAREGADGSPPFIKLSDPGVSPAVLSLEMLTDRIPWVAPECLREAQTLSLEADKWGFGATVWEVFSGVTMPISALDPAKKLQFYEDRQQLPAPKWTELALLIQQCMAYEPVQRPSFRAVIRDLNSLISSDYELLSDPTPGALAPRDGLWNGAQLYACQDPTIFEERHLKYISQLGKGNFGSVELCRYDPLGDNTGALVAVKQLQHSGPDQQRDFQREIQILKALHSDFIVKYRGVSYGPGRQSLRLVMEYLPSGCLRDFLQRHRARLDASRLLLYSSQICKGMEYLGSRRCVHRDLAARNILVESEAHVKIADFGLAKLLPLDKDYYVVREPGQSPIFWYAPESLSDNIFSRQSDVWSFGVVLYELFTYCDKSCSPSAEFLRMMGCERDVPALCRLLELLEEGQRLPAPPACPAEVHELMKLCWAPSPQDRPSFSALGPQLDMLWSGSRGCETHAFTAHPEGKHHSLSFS
Procedure: Test 1: Test for inhibitory activity to JAK2 and JAK3 tyrosine kinase 1. […] The test material was dissolved in dimethylsulfoxide (DMSO) to be 10 mM, and further diluted with DMSO to be 100-fold concentrations for measurement (1000, 300, 100, 30, 10, 3, 1, 0.3, 0.1, 0.03, 0.01 μM). In addition, solutions diluted with an assay buffer up to 20 times were used as solutions of the test material. As a negative control, a solution of DMSO diluted 20 times with an assay buffer was used. […] 2. Measurement of the Activities of JAK2 and JAK3 Tyrosine Kinases The activity was determined by ELISA. […] The absorbance was measured by means of a micro-plate reader (BIO-RAD; Model 3550) at 450 nm. 3. Analysis of the Results of the Measurement The measured absorbance was subjected to a non-linear regression analysis by means of a SAS system (SAS Institute Inc.), and the concentration (IC50) of the test material which inhibited 50% of the activity of each tyrosine kinase was estimated.

T1 sequence (O60674 whole entry): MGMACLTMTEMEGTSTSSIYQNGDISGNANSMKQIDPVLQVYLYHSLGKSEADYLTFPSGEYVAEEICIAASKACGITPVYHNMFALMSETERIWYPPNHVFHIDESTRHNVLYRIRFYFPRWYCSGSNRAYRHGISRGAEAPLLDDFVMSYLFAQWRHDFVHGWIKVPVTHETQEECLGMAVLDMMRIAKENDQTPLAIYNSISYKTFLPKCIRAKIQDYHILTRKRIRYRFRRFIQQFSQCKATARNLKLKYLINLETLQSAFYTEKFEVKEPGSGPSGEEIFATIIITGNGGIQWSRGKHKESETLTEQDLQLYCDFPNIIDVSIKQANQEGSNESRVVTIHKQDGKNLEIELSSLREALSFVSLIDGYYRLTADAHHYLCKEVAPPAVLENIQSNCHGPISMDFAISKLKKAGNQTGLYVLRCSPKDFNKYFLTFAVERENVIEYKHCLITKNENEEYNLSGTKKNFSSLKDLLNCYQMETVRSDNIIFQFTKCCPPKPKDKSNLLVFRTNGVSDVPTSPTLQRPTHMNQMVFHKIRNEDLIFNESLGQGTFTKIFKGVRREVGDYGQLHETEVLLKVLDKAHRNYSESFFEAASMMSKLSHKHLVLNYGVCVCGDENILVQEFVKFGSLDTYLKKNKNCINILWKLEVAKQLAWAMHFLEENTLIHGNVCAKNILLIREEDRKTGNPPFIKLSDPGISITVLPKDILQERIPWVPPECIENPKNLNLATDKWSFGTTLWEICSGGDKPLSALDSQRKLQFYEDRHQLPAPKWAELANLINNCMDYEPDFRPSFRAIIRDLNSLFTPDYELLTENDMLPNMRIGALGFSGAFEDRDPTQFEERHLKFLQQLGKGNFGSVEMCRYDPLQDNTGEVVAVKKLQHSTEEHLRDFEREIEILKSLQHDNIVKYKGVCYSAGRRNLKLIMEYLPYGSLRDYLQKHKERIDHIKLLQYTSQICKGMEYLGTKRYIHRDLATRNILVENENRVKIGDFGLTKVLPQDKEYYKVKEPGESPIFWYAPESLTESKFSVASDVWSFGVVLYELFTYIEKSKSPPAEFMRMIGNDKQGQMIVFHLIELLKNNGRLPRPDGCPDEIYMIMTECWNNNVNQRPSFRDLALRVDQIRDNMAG

SMILES	pIC50 (JAK2 tyrosine kinase)	pIC50 (JAK3 tyrosine kinase)
C[C@H](Nc1nc(Nc2cnccn2)cc(N2CC(C(=O)NC3CC3)C2)n1)c1ccc(F)cc1 [Example 197, (S)—N-(Cyclopropyl)-1-{2-[1-(4-fluorophenyl)ethylamino]-6-(pyrazin-2-ylamino)pyrimidin-4-yl}azetidine-3-carboxamide]	8.80	7.24
CNC(=O)c1ccc(Nc2cnccn2)nc1N[C@@H](C)c1ccc(F)cc1 [Example 185, (S)-2-[1-(4-Fluorophenyl)ethylamino]-N-methyl-6-(pyrazin-2-ylamino)nicotinamide]	8.38	6.42
CCOCCNC(=O)c1cc(Nc2cnccn2)nc(N[C@@H](C)c2ccc(F)cc2)c1 [Example 173, (S)—N-(2-Ethoxyethyl)-2-[1-(4-fluorophenyl)ethylamino]-6-(pyrazin-2-ylamino)isonicotinamide]	8.82	6.70
CCOC(=O)C1CCN(c2cc(Nc3cnccn3)nc(N[C@@H](C)c3ccc(F)cc3)n2)CC1 [Example 83, Ethyl (S)-1-{2-[1-(4-fluorophenyl)ethylamino]-6-(pyrazin-2-ylamino)pyrimidin-4-yl}piperidin-4-carboxylate]	8.43	7.24
C[C@H](Nc1cc(N2CC(O)C2)cc(Nc2cnccn2)n1)c1ccc(F)cc1 [Example 202, (S)-1-{2-[1-(4-Fluorophenyl)ethylamino]-6-(pyrazin-2-ylamino)pyridin-4-yl}azetidin-3-ol hydrochloride]	8.33	6.33
COCc1cc(Nc2cnccn2)nc(N[C@@H](C)c2ccc(F)cc2)c1 [Example 175, (S)—N^2-[1-(4-Fluorophenyl)ethyl]-4-(methoxymethyl)-N^6-(pyrazin-2-yl)pyridine-2,6-diamine]	8.31	6.40
C[C@H](Nc1nc(Nc2cnccn2)cc(N2CC(O)(C(F)(F)F)C2)n1)c1ccc(F)cc1 [Example 192, (S)-1-{2-[1-(4-Fluorophenyl)ethylamino]-6-(pyrazin-2-ylamino)pyrimidin-4-yl}-3-(trifluoromethyl)azetidin-3-ol hydrochloride]	8.72	6.92
C[C@H](Nc1nc(Nc2cnccn2)cc(N2C[C@H](O)[C@@H](O)C2)n1)c1ccc(F)cc1 [Example 110, (3S,4S)-1-{2-[(S)-1-(4-Fluorophenyl)ethylamino]-6-(pyrazin-2-ylamino)pyrimidin-4-yl}pyrrolidin-3,4-diol]	9.17	7.36
C[C@H](Nc1cc(C(=O)NC2CCC2)cc(Nc2cnccn2)n1)c1ccc(F)cc1 [Example 168, (S)—N-Cyclobutyl-2-[1-(4-fluorophenyl)ethylamino]-6-(pyrazin-2-ylamino)isonicotinamide]	7.77	5.89

Continued, values first:

pIC50 (JAK2 tyrosine kinase)	pIC50 (JAK3 tyrosine kinase)	SMILES
8.36	6.47	C[C@H](Nc1nc(Nc2cnccn2)cc(N2CC(=O)NC(=O)C2)n1)c1ccc(F)cc1 [Example 17, (S)-4-{2-[1-(4-Fluorophenyl)ethylamino]-6-(pyrazin-2-ylamino)pyrimidin-4-yl}piperazine-2,6-dione]
8.80	6.54	Cc1cn(-c2cc(Nc3cnccn3)nc(N[C@@H](C)c3ccc(F)cc3)n2)cn1 [Example 118, (S)—N^2-[1-(4-Fluorophenyl)ethyl]-6-(4-methyl-1H-imidazol-1-yl)-N^4-(pyrazin-2-yl)pyrimidine-2,4-diamine hydrochloride]
7.92	6.20	C[C@H](Nc1nc(Nc2cnccn2)cc(-c2nn[nH]n2)n1)c1ccc(F)cc1 [Example 75, (S)—N^2-[1-(4-Fluorophenyl)ethyl]-N^4-(pyrazin-2-yl)-6-(2H-tetrazol-5-yl)pyrimidine-2,4-diamine]
8.77	7.00	C[C@H](Nc1nc(Nc2cnccn2)cc(-c2ccoc2)n1)c1ccc(F)cc1 [Example 82, (S)—N^2-[1-(4-Fluorophenyl)ethyl]-6-(furan-3-yl)-N^4-(pyrazin-2-yl)pyrimidine-2,4-diamine hydrochloride]
8.62	6.89	C[C@H](Nc1nc(Nc2cnccn2)cc(N[C@@H](CO)C(N)=O)n1)c1ccc(F)cc1 [Example 109, (S)-2-{2-[(S)-1-(4-Fluorophenyl)ethylamino]-6-(pyrazin-2-ylamino)pyrimidin-4-ylamino}-3-hydroxypropanamide]
8.60	6.36	C[C@H](Nc1nc(Nc2cnccn2)cc(-c2cccc(S(C)(=O)=O)c2)n1)c1ccc(F)cc1 [Example 35, (S)—N^2-[1-(4-Fluorophenyl)ethyl]-6-[3-(methylsulfonyl)phenyl]-N^4-(pyrazin-2-yl) yrimidine-2,4-diamine hydrochloride]
8.42	6.82	C[C@H](Nc1nc(Nc2cnccn2)cc(OCCN(C)C)n1)c1ccc(F)cc1 [Example 89, (S)-6-[2-(Dimethylamino)ethoxy]-N^2-[1-(4-fluorophenyl)ethyl]-N^4-(pyrazin-2-yl)pyrimidine-2,4-diamine dihydrochloride]
8.82	7.23	CNC1CN(c2cc(Nc3cnccn3)nc(N[C@@H](C)c3ccc(F)cc3)n2)C1 [Example 221, (S)—N^2-[1-(4-Fluorophenyl)ethyl]-6-[3-(methylamino)azetidin-1-yl]-N^4-(pyrazin-2-yl)pyrimidine-2,4-diamine]
8.52	6.66	C[C@H](Nc1nc(Nc2cnccn2)cc(-c2ccnc(F)c2)n1)c1ccc(F)cc1 [Example 93, (S)—N^2-[1-(4-Fluorophenyl)ethyl]-6-(2-fluoropyridin-4-yl)-N^4-(pyrazin-2-yl)pyrimidine-2,4-diamine]
8.92	6.89	C[C@H](Nc1nc(Nc2cnccn2)cc(N2CCC2)n1)c1ccc(F)cc1 [Example 43, (S)-6-(Azetidin-1-yl)-N^2-[1-(4-fluorophenyl)ethyl]-N^4-(pyrazin-2-yl)pyrimidine-2,4-diamine]
